Data: patent US5670538A, “Use of prodelphinidins for obtaining medicaments intended for the treatment of arthrosis” (Laboratoires Dolisos, priority 1992, dated 1997)
Where two headings read alike, the source gives them in different places.

Test system: human articular chondrocytes
Assay: Radioimmunoassay of cartilaginous proteoglycans (PG) produced in tridimensional culture of human chondrocytes
Type: cell-based
Details: for PG in the clusters over 12 days: 0-12 days
From the text: The model used for testing the proanthocyanidols, namely the tridimensional culture of human chondrocytes allows chondrorepair to be quantified by the production of matrix substances: type II collagen, proteoglycans, and chondroresorption by the reduction in the levels of prostaglandin E2 and of OH° and O°2 type free radicals produced.
1. Tridimensional culture of human chondrocytes
The technique used has been described in detail (Bassleer et al., 1986).
Briefly, human articular chondrocytes are cultivated in DMEM (Dulbecco's Modification of Eagle's Medium--ICN--Gand, Belgium) with either Ultroser G 1% (GIBCO, Gand, Belgium) or 10% of foetal calf serum (ICN--Gand--Belgium), and 50 μg of ascorbic acid/ml added to it. The cartilage originates from the apparently normal zone of heads of human femur suffering from arthrosis, immediately after an operation carried out to insert a total hip prosthesis; it can also originate from the head of a healthy femur, but which has undergone a traumatism and has had to be replaced. This cartilage is then digested by clostridial collagenase 1 mg/ml (Boehringer-Mannheim, Germany) in a buffer (NaCl 120 mM, CaCl2 1 mM, KCl 5 mM, KH2 PO4 1 mM, NaHCO3 25 mM, glucose 2 mM and Hepes 30 mM, pH 7.4) for 24 hours. After 6 successive washings and centrifugations, the chondrocytes, isolated from their matrix, are cultured in flasks (10^6 cells/2 ml of culture medium) placed on a gyrator (10 rpm). The cultures are kept at 37° C. in an atmosphere of air 95%-CO2 5% (Bassleer et al., 1986). Cultivated under these conditions, after 4 to 5 days the chondrocytes form a tridimensional cluster in each flask. These clusters, which at first have a flocculent appearance, then tend to condense during the culture. After two weeks, their diameter is, in general, from 1 to 2 mm.
The fresh weight of the clusters increases with the duration of the culture, above all during the few first days.
2. Radioimmunoassay of cartilaginous proteoglycans (PG)
The PGs are measured with a radioimmunoassay (RIA) which is specific and sensitive to human cartilaginous PGs (Gysen et al. 1984). The PGs were extracted from human cartilage, according to the methods described by Roughley et al., (1981) and by Bayliss and Venn (1980). The antiserum against the cartilaginous PGs was obtained from the rabbit according to the technique of Vaitukaitis et al. (1971). The radioimmunoassay is carried out in a 0.4 ml volume consisting of 0.1 ml of tracer solution (15000 to 20000 cpm ^125 I-PG, labelled by the chloramine T method (Greenwood, 1973). 0.1 ml of anti-PG antiserum diluted to 1/5000 in phosphate-buffered saline (PBS-50 mM PO4, 150 mM NaCl ), containing BSA (5 g/l bovine serum albumin and 6.7 mM sodium azide) (incubation buffer) and 0.2 ml of several dilutions of the culture medium or of the cluster extract or also of the antigen (0.5 -500 ng/tube).
After four days at 4° C., the free PGs* (radioactive PGs) are separated from the PG*-antibody complexes by double precipitation (Franchimont et al., 1983).
The sensitivity of the assay is 0.6 ng/tube. The accuracy of measurement is of the order of 4%. The coefficients of the intra- and inter assay variation are less than 10% and 20% respectively.
The antibodies are directed against the antigenic determinants of the central protein of PG. There is a complete crossed reaction with human PGs of cartilage from the ribs, vertebral disks and trachea, even with PGs extracted from veins or arteries. There is no cross reaction with glycosaminoglycans or with PGs extracted from foetal tissues or the small PGs from bone.
The PGs are measured directly in the culture medium. As for the chondrocyte clusters, they are washed 3 times in a phosphate-buffered saline (PBS-50 mM PO4, 150 mM NaCl pH 7.4) containing protease inhibitors (Oegema et al., 1975:100 mM 6-aminohexanoic acid, 10 mM EDTA, 50 mM benzamidine hydrochloride, 5.10^-8 M trypsin inhibitor, 6.7 mM sodium azide and 200 U/ml superoxide dismutase). […]

Oc1cc(O)c2c(c1)O[C@H](c1cc(O)c(O)c(O)c1)[C@@H](O)[C@@H]2c1c(O)cc(O)c2c1O[C@H](c1cc(O)c(O)c(O)c1)[C@@H](O)[C@@H]2c1c(O)cc(O)c2c1O[C@H](c1cc(O)c(O)c(O)c1)[C@@H](O)C2 [Substance Ic, GC-(4 alpha→8) GC-(4 a→8)-GC]
PG in the clusters over 12 days (1% Ultroser G, 1 μg/ml): 886 ± 114 ng/μg DNA | PG in the clusters over 12 days (1% Ultroser G, 10 μg/ml): 1046 ± 74 ng/μg DNA | PG in the clusters over 12 days (1% Ultroser G, 100 μg/ml): 1184 ± 33 ng/μg DNA | PGs released in the culture medium, effect in words (1% Ultroser G, 1 μg/ml): significant effect | PGs released in the culture medium (1% Ultroser G, culture time 0-4 days, 1 μg/ml): 15.9 ± 1.15 μg/μg DNA/96 h | PGs released in the culture medium (1% Ultroser G, culture time 0-4 days, 10 μg/ml): 19.1 ± 1.2 μg/μg DNA/96 h | PGs released in the culture medium (1% Ultroser G, culture time 0-4 days, 100 μg/ml): 21.1 ± 1.0 μg/μg DNA/96 h | PGs released in the culture medium (1% Ultroser G, culture time 4-8 days, 1 μg/ml): 3.7 ± 0.15 μg/μg DNA/96 h | PGs released in the culture medium (1% Ultroser G, culture time 4-8 days, 10 μg/ml): 4.4 ± 0.52 μg/μg DNA/96 h | PGs released in the culture medium (1% Ultroser G, culture time 4-8 days, 100 μg/ml): 4.9 ± 0.45 μg/μg DNA/96 h | PGs released in the culture medium (1% Ultroser G, culture time 8-12 days, 1 μg/ml): 1.32 ± 0.7 μg/μg DNA/96 h | PGs released in the culture medium (1% Ultroser G, culture time 8-12 days, 10 μg/ml): 1.53 ± 0.15 μg/μg DNA/96 h | PGs released in the culture medium (1% Ultroser G, culture time 8-12 days, 100 μg/ml): 1.75 ± 0.05 μg/μg DNA/96 h | Proteoglycans released during the 12 days of culture, Abs (1% Ultroser G, cumulative, 1 μg/ml): 20.9 μg/μg DNA/12 days | Proteoglycans released during the 12 days of culture, Abs (1% Ultroser G, cumulative, 10 μg/ml): 25 μg/μg DNA/12 days | Proteoglycans released during the 12 days of culture, Abs (1% Ultroser G, cumulative, 100 μg/ml): 27.8 μg/μg DNA/12 days | Concentrations of PG in the clusters, effect in words (1% Ultroser G, three concentrations studied): significantly stimulated and in a dose-dependent way | activity at 1 µg/mL (Homo sapiens, Chondrocyte, 288 h, 1% Ultroser G, cumulative, 1 μg/ml, control = 100, read-out: Proteoglycans released during the 12 days of culture, %): 127% | activity at 10 µg/mL (Homo sapiens, Chondrocyte, 288 h, 1% Ultroser G, cumulative, 10 μg/ml, control = 100, read-out: Proteoglycans released during the 12 days of culture, %): 150% | activity at 100 µg/mL (Homo sapiens, Chondrocyte, 288 h, 1% Ultroser G, cumulative, 100 μg/ml, control = 100, read-out: Proteoglycans released during the 12 days of culture, %): 170% | activity at 10 µg/mL (Homo sapiens, Chondrocyte, foetal calf serum, Table 14, 0-4 days, 10 μg/ml, control = 100%, read-out: PG in the culture medium, % of control): 120% | activity at 100 µg/mL (Homo sapiens, Chondrocyte, foetal calf serum, Table 14, 0-4 days, 100 μg/ml, control = 100%, read-out: PG in the culture medium, % of control): 160% | activity at 10 µg/mL (Homo sapiens, Chondrocyte, foetal calf serum, Table 14, 4-8 days, 10 μg/ml, control = 100%, read-out: PG in the culture medium, % of control): 118% | activity at 100 µg/mL (Homo sapiens, Chondrocyte, foetal calf serum, Table 14, 4-8 days, 100 μg/ml, control = 100%, read-out: PG in the culture medium, % of control): 121% | activity at 10 µg/mL (Homo sapiens, Chondrocyte, foetal calf serum, Table 15, 0-4 days, 10 μg/ml, control = 100%, read-out: PG in the culture medium, % of control): 132% | activity at 100 µg/mL (Homo sapiens, Chondrocyte, foetal calf serum, Table 15, 0-4 days, 100 μg/ml, control = 100%, read-out: PG in the culture medium, % of control): 140% | activity at 10 µg/mL (Homo sapiens, Chondrocyte, foetal calf serum, Table 15, 4-8 days, 10 μg/ml, control = 100%, read-out: PG in the culture medium, % of control): 117% | activity at 100 µg/mL (Homo sapiens, Chondrocyte, foetal calf serum, Table 15, 4-8 days, 100 μg/ml, control = 100%, read-out: PG in the culture medium, % of control): 138% | activity at 10 µg/mL (Homo sapiens, Chondrocyte, foetal calf serum, Table 16, 0-8 days, 10 μg/ml, control = 100%, read-out: PG in the clusters over 8 days, % of control): 117% | activity at 100 µg/mL (Homo sapiens, Chondrocyte, foetal calf serum, Table 16, 0-8 days, 100 μg/ml, control = 100%, read-out: PG in the clusters over 8 days, % of control): 132% | activity at 10 µg/mL (Homo sapiens, Chondrocyte, foetal calf serum, Table 17, 0-8 days, 10 μg/ml, control = 100%, read-out: PG in the clusters over 8 days, % of control): 125% | activity at 100 µg/mL (Homo sapiens, Chondrocyte, foetal calf serum, Table 17, 0-8 days, 100 μg/ml, control = 100%, read-out: PG in the clusters over 8 days, % of control): 139% | PGs in the clusters, effect in words (foetal calf serum, 10 and 100 μg/ml): significantly increased | PG in the culture medium (foetal calf serum, Table 14, 0-4 days, 10 μg/ml): 7.8 ± 1.51 μg/μg DNA - 96 H | PG in the culture medium (foetal calf serum, Table 14, 0-4 days, 100 μg/ml): 10.4 ± 1.19 μg/μg DNA - 96 H | PG in the culture medium (foetal calf serum, Table 14, 4-8 days, 10 μg/ml): 2.34 ± 0.08 μg/μg DNA - 96 H | PG in the culture medium (foetal calf serum, Table 14, 4-8 days, 100 μg/ml): 2.40 ± 0.35 μg/μg DNA - 96 H | PG in the culture medium (foetal calf serum, Table 15, 0-4 days, 10 μg/ml): 7.0 ± 1.19 μg/μg DNA - 96 H | PG in the culture medium (foetal calf serum, Table 15, 0-4 days, 100 μg/ml): 7.5 ± 0.96 μg/μg DNA - 96 H | PG in the culture medium (foetal calf serum, Table 15, 4-8 days, 10 μg/ml): 2.0 ± 0.17 μg/μg DNA - 96 H | PG in the culture medium (foetal calf serum, Table 15, 4-8 days, 100 μg/ml): 2.4 ± 0.25 μg/μg DNA - 96 H | PG in the clusters over 8 days (foetal calf serum, Table 16, 0-8 days, 10 μg/ml): 915 ± 75 ng/μg DNA | PG in the clusters over 8 days (foetal calf serum, Table 16, 0-8 days, 100 μg/ml): 1035 ± 121 ng/μg DNA | PG in the clusters over 8 days (foetal calf serum, Table 17, 0-8 days, 10 μg/ml): 718.2 ± 62.61 ng/μg DNA | PG in the clusters over 8 days (foetal calf serum, Table 17, 0-8 days, 100 μg/ml): 799.5 ± 85.9 ng/μg DNA
